Data taken from patent US9949961B2, “Agent for the prophylaxis and/or treatment of neoplastic diseases” (priority 2013, dated 2018).

Key:
[1] = tested on: hepatic tumors induced by DENA; test: Preventive effect on hepatic neoplasms induced by N-diethyl nitrosamine (DENA) in rats; type: in vivo, male Wistar rats; settings: for Preventive effect in relation to hepatic tumors: 25 mg/kg a day, DENA carcinogenesis in rats; for Weight of rats / Number of animals with induced tumors / Number of hepatic tumors: 25 mg/kg/day in drinking water, DENA 30 mg/kg/week i.p.; for Weight of rats: from 3 weeks prior to DENA and then 2.5 months; for Number of animals with induced tumors: 16 animals in group; for Number of hepatic tumors: counted visually on liver surface
Description: The efficacy of preventive effects of Products 1 and 2 in relation to hepatic neoplasms was shown in the experiment on male Wistar rats which were intraperitoneally administered with chemical carcinogen-N-diethyl nitrosamine (DENA) (Nitrosodiethylamin (N—N)). The nature of the invention is explained with the execution example.
To solve the task, 3 groups of male Wistar rats weighing 150-200 g were formed, 16 in each. Rats of the control group were administered intraperitoneally with DENA in dose 30 mg/kg/week. The dosage was administered in 2 doses: Monday and Thursday. The animals of test groups were similarly administered with DENA. Rats of test groups took drinking water in addition to Products 1 and 2 assuming that they took 25 mg/kg of body weight/day with water. The animals started taking the products 3 weeks prior administration of N-diethyl nitrosamine to develop protective background in animal body and subsequently for 2.5 months.
During the experiment, weight of rats was controlled. After autopsy of animals, liver was weighted, tumors were visually counted on its surface and photographed.

[2] = tested on: neuroblastoma N2A cell culture; settings: cited from earlier work
Lewis carcinoma = test: Anti-neoplastic and anti-metastatic activity in mice with Lewis carcinoma implanted to the paw; type: in vivo, male mice F1 (CBA×C57B1/6); settings: for Number of lung metastases: day 21 after tumor implantation; for Growth of Lewis carcinoma in mice: 5 and 25 mg/kg, inhibition is dose-related
Description: The efficacy of anti-neoplastic (anti-proliferative) and anti-metastatic properties of products 1 and 2 was shown in the experiment on male mice F1 (CBA×CS7B1/6) with Lewis carcinoma implanted to the paw following intragastric administration in two doses: 5 mg/kg and 25 mg/kg for 3 weeks immediately after implantation and within 1 week prior tumor transplantation.
Test system. To examine anti-neoplastic (anti-proliferative) and anti-metastatic properties of products 1 and 2, 120 hybrid male mice of the first generation CBA×[…] were used: each group of 10-12 mice. Lewis carcinoma was implanted to a hind paw, in the amount ˜10^6 cells (˜0.2 cm^3) Doses and dosing schemes for products 1 and 2. Route of the product administration—per os provided addition of products 1 and 2 to drinking water which was given to animals. Products 1 and 2 were added to drinking water by two schemes: within 3 weeks immediately after implantation and within 4 weeks with the dosing started prior implantation.
Anti-neoplastic (anti-proliferative) and anti-metastatic activity of products 1 and 2 was assessed based on change of tumor volume and number of lung metastases. The number of metastases was assessed on day 21 after tumor implantation (day 28 after the administration of products 1 and 2 by the 1-st scheme). For that, lungs were withdrawn in animals decapitated under anesthesia and transferred to Bouin's fluid. Metastases were visually counted. The volume of neoplasm was assessed by ellipsoid equation (1). […]
[formula] where: d1, d2, d3—mutually perpendicular tumor sizes.

[3] = 5 mg/kg per os in drinking water, after implantation (scheme 2), day 1
[4] = 5 mg/kg per os in drinking water, after implantation (scheme 2), day 7
[5] = 5 mg/kg per os in drinking water, after implantation (scheme 2), day 15
[6] = 5 mg/kg per os in drinking water, prior and after implantation (scheme 1), day 1
[7] = 5 mg/kg per os in drinking water, prior and after implantation (scheme 1), day 7
[8] = 5 mg/kg per os in drinking water, prior and after implantation (scheme 1), day 15
[9] = 5 mg/kg, after implantation (scheme 2)
[10] = 5 mg/kg, prior and after implantation (scheme 1)
[11] = 25 mg/kg per os in drinking water, after implantation (scheme 2), day 1
[12] = 25 mg/kg per os in drinking water, after implantation (scheme 2), day 7
[13] = 25 mg/kg per os in drinking water, after implantation (scheme 2), day 15
[14] = 25 mg/kg per os in drinking water, prior and after implantation (scheme 1), day 1
[15] = 25 mg/kg per os in drinking water, prior and after implantation (scheme 1), day 7
[16] = 25 mg/kg per os in drinking water, prior and after implantation (scheme 1), day 15
[17] = 25 mg/kg, after implantation (scheme 2)
[18] = 25 mg/kg, prior and after implantation (scheme 1)

Compound: O=C1CSC(=S)N1CCc1ccccc1 [Product 1]
- Preventive effect in relation to hepatic tumors [1]: have preventive effect
- Weight of rats [1]: 146.4 ± 3.57 g
- Number of animals with induced tumors [1]: 15
- Number of hepatic tumors [1]: 15.1 ± 2.88
- Anti-proliferative effect [2]: anti-proliferative effect
- Tumor volume (Lewis carcinoma; [3]): 52 ± 17 mm^3
- Tumor volume (Lewis carcinoma; [4]): 708 ± 86 mm^3
- Tumor volume (Lewis carcinoma; [5]): 1826 ± 196 (P < 0.05) mm^3
- Tumor volume (Lewis carcinoma; [6]): 40 ± 15 mm^3
- Tumor volume (Lewis carcinoma; [7]): 715 ± 103 mm^3
- Tumor volume (Lewis carcinoma; [8]): 1597 ± 133 (P < 0.01)^2 mm^3
- Number of lung metastases (Lewis carcinoma; [9]): 32.8 ± 8.1
- Number of lung metastases (Lewis carcinoma; [10]): 42.2 ± 7.1
- Tumor volume (Lewis carcinoma; [11]): 60 ± 19 mm^3
- Tumor volume (Lewis carcinoma; [12]): 812 ± 153 mm^3
- Tumor volume (Lewis carcinoma; [13]): 1437 ± 325 (P < 0.01) mm^3
- Tumor volume (Lewis carcinoma; [14]): 101 ± 29 mm^3
- Tumor volume (Lewis carcinoma; [15]): 671 ± 104 mm^3
- Tumor volume (Lewis carcinoma; [16]): 1225 ± 214 (P < 0.01) mm^3
- Number of lung metastases (Lewis carcinoma; [17]): 20.3 ± 4.2 (P < 0.01)^2
- Number of lung metastases (Lewis carcinoma; [18]): 33.1 ± 9.1
- Growth of Lewis carcinoma in mice (Lewis carcinoma): able to inhibit growth

Compound: O=C1CSC(=S)N1CCc1ccncc1 [Product 2]
- Preventive effect in relation to hepatic tumors [1]: have preventive effect
- Weight of rats [1]: 145.9 ± 1.26 g
- Number of animals with induced tumors [1]: 15
- Number of hepatic tumors [1]: 16.6 ± 3.12
- Tumor volume (Lewis carcinoma; [3]): 49 ± 15 mm^3
- Tumor volume (Lewis carcinoma; [4]): 702 ± 92 mm^3
- Tumor volume (Lewis carcinoma; [5]): 1806 ± 203 (P < 0.05) mm^3
- Tumor volume (Lewis carcinoma; [6]): 39 ± 13 mm^3
- Tumor volume (Lewis carcinoma; [7]): 706 ± 99 mm^3
- Tumor volume (Lewis carcinoma; [8]): 1588 ± 127 (P < 0.01)^3 mm^3
- Number of lung metastases (Lewis carcinoma; [9]): 33.3 ± 7.8
- Number of lung metastases (Lewis carcinoma; [10]): 43.4 ± 6.5
- Tumor volume (Lewis carcinoma; [11]): 70 ± 14 mm^3
- Tumor volume (Lewis carcinoma; [12]): 827 ± 140 mm^3
- Tumor volume (Lewis carcinoma; [13]): 1459 ± 299 (P < 0.01) mm^3
- Tumor volume (Lewis carcinoma; [14]): 98 ± 95 mm^3
- Tumor volume (Lewis carcinoma; [15]): 650 ± 97 mm^3
- Tumor volume (Lewis carcinoma; [16]): 1204 ± 226 (P < 0.01) mm^3
- Number of lung metastases (Lewis carcinoma; [17]): 19.0 ± 5.1 (P < 0.01)^3
- Number of lung metastases (Lewis carcinoma; [18]): 34.2 ± 8.9
- Growth of Lewis carcinoma in mice (Lewis carcinoma): able to inhibit growth
